The values that follow come from PubChem BioAssay (NCI).

Among the test systems are DU-145 prostate; EKVX NSCLC; IGROV1 ovarian; K-562 leukemia; KM12 colon; NCI-H23 lung; SF-539 CNS; SK-MEL-5 melanoma; TK-10 renal; MALME-3M melanoma.
What all share (experiment): DTP human tumour cell line panel, 48 h

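Each compound was tested at five concentrations against cells in 96-well plates for 48 hours. GI50: concentration for 50% inhibition of growth. TGI: concentration producing complete growth inhibition.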

By GI50 is commonly meant the concentration at which growth is held to half of that of the control. The TGI is the concentration giving total growth inhibition. A high value points to less potent growth arrest. In the case of `COC(=O)[C@@H](C)C[C@H](Cc1ccccc1)NC(=O)c1csc([C@@H](C[C@H](C(C)C)N(C)C(=O)[C@H](C)NC(=O)[C@H]2CCCCN2C)OC(C)=O)n1`, the GI50 was 1.05 µM with DU-145 prostate; 5.74 µM in the test on EKVX NSCLC; 1.14 µM in the test with IGROV1 ovarian; 0.278 µM in the test with K-562 leukemia; 1.11 µM with KM12 colon; 7.55 µM in the test with NCI-H23 lung. Also, the results for the GI50 in the test on SF-539 CNS, in the test with SK-MEL-5 melanoma and in the test with TK-10 renal were 1.42 µM, 0.86 µM and over 25 µM, respectively. The TGI in the test on DU-145 prostate, in the test with EKVX NSCLC, in the test with IGROV1 ovarian, with K-562 leukemia, in the test with KM12 colon and with NCI-H23 lung was over 25 µM throughout. Moreover, the TGI in the test with SF-539 CNS is 20.6 µM; in the test with SK-MEL-5 melanoma, over 25 µM; in the test on TK-10 renal, over 25 µM.
For the compound `CCc1nc(N)nc(N)c1-c1ccc(Cl)c(N=CN(C)C)c1`, the TGI with DU-145 prostate is over 100 µM; with EKVX NSCLC, over 100 µM; in the test with IGROV1 ovarian it was over 100 µM; in the test on K-562 leukemia, over 100 µM; in the test with KM12 colon it was over 100 µM; in the test with NCI-H23 lung it was over 81.5 µM. Further, the TGI in the test with SF-539 CNS, in the test with SK-MEL-5 melanoma and in the test with TK-10 renal was over 100 µM throughout.
Turning to `O=C1OC(c2ccccc2)=N/C1=C\c1cccc(F)c1`, the TGI in the test on DU-145 prostate, with EKVX NSCLC, with IGROV1 ovarian, in the test on K-562 leukemia, in the test on KM12 colon and with NCI-H23 lung was over 100 µM each time. Moreover, the TGI in the test on SK-MEL-5 melanoma and in the test on TK-10 renal was over 100 µM in each case.
Take `Cc1nc(Nc2nc3ccccc3o2)nc(-c2cccc([N+](=O)[O-])c2)c1C(=O)Nc1ccc(F)c(Cl)c1`: the GI50 in the test with DU-145 prostate was 2.95 µM; with IGROV1 ovarian it was 2.94 µM; with K-562 leukemia it was 1.84 µM; in the test with KM12 colon, 1.96 µM; in the test on MALME-3M melanoma it was 1.92 µM; with NCI-H23 lung it was 2.19 µM. In addition, the figures for the GI50 with SF-539 CNS, with SK-MEL-5 melanoma and in the test on TK-10 renal were 3.52 µM, 1.71 µM and 2.07 µM, respectively. The TGI in the test on DU-145 prostate is over 100 µM; in the test on IGROV1 ovarian, over 100 µM; in the test on K-562 leukemia, over 100 µM; in the test on KM12 colon, 12.4 µM; in the test with MALME-3M melanoma, 5.79 µM; in the test on NCI-H23 lung it was 18.8 µM. The TGI with SF-539 CNS is over 100 µM; with SK-MEL-5 melanoma, 3.45 µM; in the test with TK-10 renal, 12.2 µM.
For `Cc1c(Sc2ccccc2)[n+](=O)c2cc(Cl)c(Cl)cc2n1[O-]`, the GI50 in the test on DU-145 prostate was 23.4 µM; in the test on EKVX NSCLC it was over 100 µM; in the test on IGROV1 ovarian, 15.5 µM; in the test with K-562 leukemia, 2.22 µM; in the test on KM12 colon, over 100 µM; in the test with NCI-H23 lung it was 33.2 µM. Besides, the GI50 was 89.9 µM with SF-539 CNS, 54.1 µM with SK-MEL-5 melanoma and 26.1 µM in the test on TK-10 renal. The TGI in the test with DU-145 prostate is 44.8 µM; with EKVX NSCLC, over 100 µM; in the test on IGROV1 ovarian, 38 µM; in the test with K-562 leukemia, 11.3 µM; in the test on KM12 colon, over 100 µM; in the test with NCI-H23 lung it was over 100 µM. Moreover, the values for the TGI in the test with SF-539 CNS, in the test on SK-MEL-5 melanoma and in the test with TK-10 renal were over 100 µM, over 100 µM and 70.6 µM, respectively.
Take `CCn1c2ccccc2c2cc(C(O)c3cccc4ncccc34)ccc21` (stereo not drawn): the GI50 in the test with DU-145 prostate is 0.0828 µM; in the test with EKVX NSCLC, 0.0864 µM; in the test with IGROV1 ovarian, 0.174 µM; with K-562 leukemia it was 0.0389 µM; in the test with KM12 colon it was 0.0421 µM; in the test on NCI-H23 lung, 0.0958 µM. Further, the GI50 with SF-539 CNS was 0.0346 µM; in the test on SK-MEL-5 melanoma it was 0.0465 µM; with TK-10 renal it was 3.7 µM. For the same compound, the TGI is 4.78 µM in the test on DU-145 prostate; over 100 µM with EKVX NSCLC; over 100 µM in the test on IGROV1 ovarian; 10.9 µM in the test with K-562 leukemia; 6.56 µM with KM12 colon; 19.5 µM in the test on NCI-H23 lung. The figures for the TGI with SF-539 CNS, in the test on SK-MEL-5 melanoma and in the test on TK-10 renal were 0.224 µM, 1.57 µM and over 78.6 µM, respectively.
With `COc1cc2c(c(OC3OC(CO)C(O)C(O)C3O)c1)C(=O)CC(c1ccc(O)cc1)O2` (stereo not drawn), the TGI with DU-145 prostate, in the test on EKVX NSCLC, in the test on IGROV1 ovarian, with K-562 leukemia, with KM12 colon and with NCI-H23 lung was over 100 µM each time. Further, the TGI in the test with SF-539 CNS, in the test on SK-MEL-5 melanoma and with TK-10 renal was over 100 µM throughout.
As for `COc1ccc(Nc2c3ccccc3nc3[nH]c4ccccc4c23)cc1`, the GI50 is 6.47 µM in the test with DU-145 prostate; 10.9 µM in the test on EKVX NSCLC; 16.9 µM in the test with IGROV1 ovarian; 7.17 µM with K-562 leukemia; over 50 µM in the test on KM12 colon; over 50 µM in the test with NCI-H23 lung. Besides, the GI50 with SF-539 CNS was 6.5 µM; with SK-MEL-5 melanoma it was 5.52 µM; in the test on TK-10 renal, 26.7 µM. In addition, the TGI in the test on DU-145 prostate is 33.9 µM; in the test with EKVX NSCLC it was over 50 µM; in the test on IGROV1 ovarian, over 50 µM; in the test on K-562 leukemia it was over 50 µM; with KM12 colon, over 50 µM; in the test with NCI-H23 lung, over 50 µM. Besides, the TGI in the test with SF-539 CNS was 20 µM; with SK-MEL-5 melanoma it was over 50 µM; in the test with TK-10 renal, over 50 µM.
As to `Cc1ncc([N+](=O)[O-])n1CCNC(=O)Cn1c([N+](=O)[O-])cnc1C`, the TGI in the test on DU-145 prostate, in the test with IGROV1 ovarian, in the test with K-562 leukemia, with KM12 colon, in the test on MALME-3M melanoma and with NCI-H23 lung was over 100 µM in each case. Besides, the TGI in the test on SF-539 CNS, in the test on SK-MEL-5 melanoma and in the test with TK-10 renal was over 100 µM in each case.
Take `Oc1ccc(Cl)cc1CNc1nc2ccccc2[nH]1`: the GI50 in the test on DU-145 prostate was 16.2 µM; in the test with IGROV1 ovarian it was 18.3 µM; with K-562 leukemia, 15.4 µM; with KM12 colon it was 13.3 µM; in the test with MALME-3M melanoma, 13.8 µM; in the test with NCI-H23 lung, 14.3 µM. Besides, the values for the GI50 in the test on SF-539 CNS, in the test on SK-MEL-5 melanoma and with TK-10 renal were 12.9 µM, 13 µM and 15.7 µM, respectively. The TGI with DU-145 prostate is 32.4 µM; in the test on IGROV1 ovarian, 41.3 µM; with K-562 leukemia, 56 µM; in the test with KM12 colon, 27 µM; in the test on MALME-3M melanoma, 32.9 µM; with NCI-H23 lung, 33.1 µM. Moreover, the TGI in the test on SF-539 CNS was found to be 26.8 µM; with SK-MEL-5 melanoma, 25.6 µM; with TK-10 renal it was 31.2 µM.
